The structures appear in SMILES notation.

As usually defined, the EC50 is the concentration at which the effect is half-maximal.

The test has as its target T1, hM5 receptor (Homo sapiens, UniProt P08912).
T1 construct: expressed in transfected cells; host or cells: CHO cells (Levey et al., 1991)
T1 sequence (P08912 1-532): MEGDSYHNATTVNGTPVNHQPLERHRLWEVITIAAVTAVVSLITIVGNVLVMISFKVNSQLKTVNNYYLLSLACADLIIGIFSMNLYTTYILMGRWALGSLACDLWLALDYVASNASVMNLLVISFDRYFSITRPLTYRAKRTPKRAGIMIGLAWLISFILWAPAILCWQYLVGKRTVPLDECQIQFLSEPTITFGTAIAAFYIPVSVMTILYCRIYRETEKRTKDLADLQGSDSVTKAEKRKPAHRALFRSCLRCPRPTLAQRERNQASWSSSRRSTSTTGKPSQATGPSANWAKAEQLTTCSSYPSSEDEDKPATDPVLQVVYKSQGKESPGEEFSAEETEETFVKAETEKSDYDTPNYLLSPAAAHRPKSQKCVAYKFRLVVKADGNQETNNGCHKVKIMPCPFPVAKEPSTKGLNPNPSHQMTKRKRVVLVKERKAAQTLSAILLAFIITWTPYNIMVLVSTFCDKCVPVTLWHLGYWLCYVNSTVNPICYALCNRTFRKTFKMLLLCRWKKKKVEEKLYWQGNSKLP
Put plainly: Calcium mobilization assay, CHO cells stably expressing hM5. It counts as cell-based. The text has this: Chinese hamster ovary (CHO-K1) cells stably expressing rat (r)M1 were purchased from the American Type Culture Collection and cultured according to their indicated protocol. CHO cells stably expressing human (h)M2, hM3, and hM5 were described previously (Levey et al., 1991); hM1 and hM4 cDNAs were purchased from Missouri S&T cDNA Resource; rM4 cDNA was provided by T. I. Bonner (National Institutes of Health, Bethesda, Md.). hM1, hM4, and rM4 cDNAs were used to stably transfect CHO-K1 cells purchased from the American Type Culture Collection using Lipofectamine2000. […]
For low throughput measurement of agonist-evoked increases in intracellular calcium, CHO-K1 cells stably expressing muscarinic receptors were plated in 100 μL of growth medium at 5×10^4 (rM1, hM3, and hM5) or 6×10^4 cells per well (rM1 Y381A, hM2, and rM4) in Costar 96-well black-walled, tissue culture (TC)-treated, clear-bottom plates (Fisher). […] For calcium fluorescence measurements, CRCs of compounds (50 μl, 2×) were added 19 s after the beginning of data collection via a Flexstation II (Molecular Devices, Sunnyvale, Calif.). Fluorescence imaging continued for a total of 130 s acquisition time using an excitation wavelength of 488 nm, an emission wavelength of 525 nm, and a cutoff wavelength of 515 nm. […]
(In general: Calcium flux is commonly read through the fluorescence of an indicator in the cells.)

As to `CCOC(=O)N1[C@@H]2CC[C@H]1C[C@@H](NCCNC(=O)c1ccccc1)C2` [Example 27, ethyl 3-((3-endo)-(2-benzamidoethyl)amino)-8-azabicyclo[3.2.1]octane-8-carboxylate], the half-maximal effective concentration (EC50) was about 10 µM.
For the compound `CCOC(=O)N1[C@@H]2CC[C@H]1C[C@H](NCCNC(=O)c1ccccc1)C2` [Example 26, ethyl 3-((3-exo)-(2-benzamidoethyl)amino)-8-azabicyclo[3.2.1]octane-8-carboxylate], the concentration giving a half-maximal response (EC50) is over 10 µM.
